According to ChEMBL document CHEMBL4627305, “3,3-Difluoro-3,4,5,6-tetrahydropyridin-2-amines: Potent and permeable BACE-1 inhibitors” (Bioorg Med Chem Lett, 2020):

Tests used:
[1] = molecular target: Voltage-gated inwardly rectifying potassium channel KCNH2 (Homo sapiens, UniProt Q12809); experiment: Inhibition of human ERG
[2] = Efflux ratio of apparent permeability across basolateral to apical over apical to basolateral side in MDCK cells; assay type: ADME, cell-based, Canis lupus familiaris; conditions: dog
[3] = molecular target: Cytochrome P450 2D6 (Homo sapiens, UniProt P10635); experiment: Inhibition of CYP2D6 (unknown origin); assay type: ADME
Chain of Cytochrome P450 2D6 (P10635 whole entry): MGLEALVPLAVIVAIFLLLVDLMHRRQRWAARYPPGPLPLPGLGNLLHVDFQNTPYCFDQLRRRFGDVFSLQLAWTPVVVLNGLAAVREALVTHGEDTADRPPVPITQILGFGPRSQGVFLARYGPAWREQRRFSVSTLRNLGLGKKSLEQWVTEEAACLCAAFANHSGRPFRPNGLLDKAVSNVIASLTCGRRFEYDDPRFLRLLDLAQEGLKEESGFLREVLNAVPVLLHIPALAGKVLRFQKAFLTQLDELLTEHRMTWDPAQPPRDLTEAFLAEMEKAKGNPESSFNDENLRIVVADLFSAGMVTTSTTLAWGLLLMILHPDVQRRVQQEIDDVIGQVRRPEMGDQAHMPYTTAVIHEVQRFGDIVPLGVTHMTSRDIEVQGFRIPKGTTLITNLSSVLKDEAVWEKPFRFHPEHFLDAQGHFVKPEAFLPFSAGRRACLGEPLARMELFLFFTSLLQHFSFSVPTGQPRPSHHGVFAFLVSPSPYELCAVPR

[4] = molecular target: T1, Beta-secretase 1 (Homo sapiens, UniProt P56817); experiment: Inhibition of BACE1 (unknown origin) assessed as reduction in Abeta42 level by cell based assay
T1 sequence (P56817 whole entry): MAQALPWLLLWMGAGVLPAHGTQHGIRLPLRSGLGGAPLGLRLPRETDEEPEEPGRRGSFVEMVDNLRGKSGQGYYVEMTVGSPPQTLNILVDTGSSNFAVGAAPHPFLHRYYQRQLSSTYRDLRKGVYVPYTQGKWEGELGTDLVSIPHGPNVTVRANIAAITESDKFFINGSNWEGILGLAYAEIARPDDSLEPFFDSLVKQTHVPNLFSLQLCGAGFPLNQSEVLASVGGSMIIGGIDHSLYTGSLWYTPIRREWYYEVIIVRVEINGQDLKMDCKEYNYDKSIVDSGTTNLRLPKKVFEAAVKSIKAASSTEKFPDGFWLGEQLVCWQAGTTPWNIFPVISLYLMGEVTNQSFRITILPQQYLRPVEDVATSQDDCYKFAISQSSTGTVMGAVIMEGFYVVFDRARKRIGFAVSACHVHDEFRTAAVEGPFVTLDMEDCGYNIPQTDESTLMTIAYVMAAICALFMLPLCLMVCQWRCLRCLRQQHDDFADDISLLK

[5] = species on record: Homo sapiens; experiment: Selectivity index, ratio of IC50 for BACE2 (unknown origin) to IC50 for BACE1 (unknown origin)
[6] = molecular target: T2, Beta-secretase 2 (Homo sapiens, UniProt Q9Y5Z0); experiment: Inhibition of BACE2 (unknown origin)
T2 sequence (Q9Y5Z0 whole entry): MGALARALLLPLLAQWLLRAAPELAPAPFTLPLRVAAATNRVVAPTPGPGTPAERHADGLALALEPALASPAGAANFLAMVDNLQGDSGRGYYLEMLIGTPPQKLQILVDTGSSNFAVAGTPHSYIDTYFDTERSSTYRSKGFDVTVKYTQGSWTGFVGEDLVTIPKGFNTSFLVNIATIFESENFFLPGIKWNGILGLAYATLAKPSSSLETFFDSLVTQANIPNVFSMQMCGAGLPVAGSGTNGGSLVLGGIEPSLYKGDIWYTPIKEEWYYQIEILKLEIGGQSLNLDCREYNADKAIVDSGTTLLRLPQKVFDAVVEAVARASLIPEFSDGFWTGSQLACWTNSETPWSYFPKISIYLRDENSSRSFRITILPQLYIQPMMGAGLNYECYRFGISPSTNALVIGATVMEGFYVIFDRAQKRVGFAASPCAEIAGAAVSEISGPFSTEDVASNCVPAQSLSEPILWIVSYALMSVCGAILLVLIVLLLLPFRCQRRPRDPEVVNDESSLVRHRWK

[7] = molecular target: T1, Beta-secretase 1; experiment: Inhibition of BACE1 (unknown origin)
[8] = Metabolic stability in dog liver microsomes assessed as intrinsic clearance; assay type: ADME, Canis lupus familiaris, Microsome; conditions: read-out: CLH
[9] = Dissociation constant, pKa of the compound; assay type: physicochemical
[10] = Metabolic stability in human liver microsomes assessed as intrinsic clearance; assay type: ADME, Microsome; conditions: read-out: CLH

Chain of Voltage-gated inwardly rectifying potassium channel KCNH2 (Q12809 whole entry): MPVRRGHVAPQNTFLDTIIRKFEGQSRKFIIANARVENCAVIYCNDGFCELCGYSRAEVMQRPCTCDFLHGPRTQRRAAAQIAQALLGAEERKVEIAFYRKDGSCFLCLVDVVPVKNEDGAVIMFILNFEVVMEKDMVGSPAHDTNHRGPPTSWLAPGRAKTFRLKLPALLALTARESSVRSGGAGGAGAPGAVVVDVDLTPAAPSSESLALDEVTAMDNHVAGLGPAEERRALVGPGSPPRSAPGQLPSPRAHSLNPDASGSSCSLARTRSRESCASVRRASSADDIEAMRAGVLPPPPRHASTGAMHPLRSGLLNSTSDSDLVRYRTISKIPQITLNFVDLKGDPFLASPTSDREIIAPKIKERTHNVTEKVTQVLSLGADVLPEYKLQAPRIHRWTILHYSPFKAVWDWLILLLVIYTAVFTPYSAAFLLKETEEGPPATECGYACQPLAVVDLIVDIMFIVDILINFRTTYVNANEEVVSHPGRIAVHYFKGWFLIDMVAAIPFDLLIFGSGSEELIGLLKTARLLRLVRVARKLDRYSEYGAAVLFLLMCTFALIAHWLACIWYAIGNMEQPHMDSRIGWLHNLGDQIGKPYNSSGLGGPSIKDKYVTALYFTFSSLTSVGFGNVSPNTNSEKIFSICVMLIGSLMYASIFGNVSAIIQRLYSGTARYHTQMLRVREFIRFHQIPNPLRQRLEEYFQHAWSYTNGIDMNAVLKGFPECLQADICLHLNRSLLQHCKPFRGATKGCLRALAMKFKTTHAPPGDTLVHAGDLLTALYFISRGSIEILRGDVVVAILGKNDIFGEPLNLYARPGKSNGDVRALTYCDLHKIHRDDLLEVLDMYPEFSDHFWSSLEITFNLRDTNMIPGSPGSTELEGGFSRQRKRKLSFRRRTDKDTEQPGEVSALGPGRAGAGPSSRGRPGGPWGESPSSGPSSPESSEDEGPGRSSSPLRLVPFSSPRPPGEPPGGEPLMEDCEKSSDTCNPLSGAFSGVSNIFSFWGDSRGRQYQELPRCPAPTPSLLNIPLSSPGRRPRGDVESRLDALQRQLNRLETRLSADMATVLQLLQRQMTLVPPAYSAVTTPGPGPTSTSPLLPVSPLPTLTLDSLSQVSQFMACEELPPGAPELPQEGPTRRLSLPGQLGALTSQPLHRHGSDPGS

Row | efflux ratio [2] | IC50 [3] | IC50 [4] | Ratio IC50 [5] | IC50 [6] | IC50 [7] | microsomal CLint [8] | pKa [9] | microsomal CLint [10] | Structure (SMILES) | IC50 [1]
1 | 8.4 | > 10 µM | 0.17 µM | 13.5 | 1.07 µM | 0.0794 µM | 11.8 µL/min/mg | 6.7 | 35.3 µL/min/mg | NC1=N[C@@]2(c3cc(NC(=O)c4cnc(OCF)cn4)ccc3F)CCOC[C@H]2CC1(F)F (racemic) | > 10 µM
2 | 2.1 | 1 µM | 0.0162 µM | 11 | 0.126 µM | 0.0115 µM | 10.2 µL/min/mg | 7.6 | 10.1 µL/min/mg | C[C@@]1(c2cc(NC(=O)c3cnc(OCF)cn3)ccc2F)CCC(F)(F)C(N)=N1 | > 10 µM
3 | – | – | 0.0933 µM | – | 0.138 µM | 0.0089 µM | < 7.7 µL/min/mg | 6.3 | < 7.7 µL/min/mg | NC1=N[C@](CF)(c2cc(NC(=O)c3cnc(OCF)cn3)ccc2F)CCC1(F)F | –

Further lines, the molecule ahead of its results:

Row | Structure (SMILES) | efflux ratio [2] | IC50 [3] | IC50 [4] | Ratio IC50 [5] | IC50 [6] | IC50 [7] | microsomal CLint [8] | pKa [9] | microsomal CLint [10] | IC50 [1]
4 | NC1=N[C@@]2(c3cc(NC(=O)c4cnc(OCF)cn4)ccc3F)CO[C@@H](CF)C[C@H]2CC1(F)F | 12 | > 10 µM | 0.0048 µM | 3.6 | 0.0089 µM | 0.0025 µM | < 7.7 µL/min/mg | 6.4 | 24.9 µL/min/mg | > 10 µM
5 | C[C@H]1C[C@H]2CC(F)(F)C(N)=N[C@@]2(c2cc(NC(=O)c3cnc(OCF)cn3)ccc2F)CO1 | 5 | > 10 µM | 0.0035 µM | 4.5 | 0.0068 µM | 0.0015 µM | 18.6 µL/min/mg | 6.6 | 119 µL/min/mg | > 10 µM
6 | NC1=N[C@@]2(c3cc(NC(=O)c4cnc(OCF)cn4)ccc3F)COCC[C@H]2CC1(F)F (racemic) | 4.7 | > 10 µM | 0.0071 µM | 3 | 0.0102 µM | 0.0035 µM | 15.5 µL/min/mg | 6.6 | 46.2 µL/min/mg | > 10 µM
